Source: article PMC7244523, “A Cell-based Screen in Actinomyces oris to Identify Sortase Inhibitors” (Scientific Reports, 2020)
≈ marks a conversion by molar mass, not a printed value.

Assays:
SaSrtA = SaSrtA (Staphylococcus aureus, UniProt Q2FV99); experiment: FRET-based in vitro sortase activity assay, SaSrtA; assay type: biochemical
Protocol: (§1) The ability of the hit molecules to inhibit sortase activity was measured in vitro using an established FRET-based assay[13] that measures the ability of each enzyme to cleave a fluorogenic peptide substrate; Abz-LAQTG-Dap(Dnp)-NH2 and Abz-LPETG-Dap(Dnp)-NH2, substrates for ^AoSrtA and ^SaSrtA, respectively. Each enzyme cleaves between the threonine and glycine bond in these peptides, leading to a measurable increase in fluorescence (see Methods). The IC50 value of each compound was determined for both the ^AoSrtA and ^SaSrtA enzymes.
(§2) IC50 values for the six hit molecules against the ^AoSrtA and ^SaSrtA enzymes were determined as previously described, with some modifications. Briefly, molecules 1–6 were serial diluted 2-fold (from 1.25 mM to 2.44 µM, 500 µM to 0.98 µM final assay concentration) into 25 µM ^AoSrtA or ^SaSrtA (final assay concentration 10 µM) in buffer A (20 mM HEPES pH 7, 5 mM CaCl2, 0.05% TWEEN, 30% DMSO). The final DMSO concentration was […] in the assay. Samples were incubated 1 hour at room temperature and aliquoted into a 384-well plate (EK-30892). Thirty microliters of FRET peptide (Peptide 2.0) in buffer B (20 mM HEPES pH 7, 5 mM CaCl2, 0.05% TWEEN), […] for ^SaSrtA or Abz-LAQTG-Dap(Dnp)-NH2 for ^AoSrtA was added and the plate was immediately placed into a Flexstation II plate reader (Molecular Devices) and fluorescence was recorded at 335/420 nm excitation/emission wavelengths after 5 seconds of plate shaking to mix the reaction components. Plate fluorescence was measured over the course of 30 minutes.

[1] = system: A. oris MG-1 (wild-type) versus ΔsrtA/ΔgspA strain; experiment: High-throughput cell-based growth screen and counter-screen (differential growth); parameters: species or system Actinomyces oris; conditions: differential effect on wild-type MG-1 and ΔgspAΔsrtA strains in the HTS; 10 µM, in duplicate; 100 = extreme difference, 0 = none
Protocol: In the primary screen, a total of 200,834 small molecules were tested for their ability to impair A. oris MG-1 growth. Cells were added to an optical density (OD600) of 0.01 in media containing 10 µM of each molecule, followed by a 15 hour incubation at 37 °C and end-point OD600 measurement. The growth effect of each molecule was normalized and expressed as a percent growth relative to the DMSO-only control (see Methods). A total of 1,904 molecules were classified as preliminary hits (0.95% of the molecules tested), as they reduced MG-1 growth after 15 hours by at least 34%, or 2.75 standard deviations below the average. The preliminary hits were then subjected to a counter-screen in which their growth effects on ΔsrtA/ΔgspA were determined. In order to eliminate potentially erroneously identified preliminary hits, the counter-screen and preliminary screen was performed in duplicate for the 1,904 preliminary hit molecules. A molecule was deemed as a hit if it caused greater than 15% differential growth effect in duplicate when the MG-1 and ΔsrtA/ΔgspA strains were compared. […] Data is plotted as the percentage of growth inhibition for each molecule (see Methods).
A total of 200,834 small molecule compounds (Molecular Screening Shared Resource, UCLA) were dissolved in 100% Omnisolv methylsulfoxide (MilliporeSigma MX1456P-6) and stored in 384-well polypropylene plates. Actinomyces oris MG-1 and ΔgspAΔsrtA were streaked out on BHI agar plates containing 50 µg/mL kanamycin and grown at 37 °C for 48 hours to allow single colonies to grow. Cultures were started from 2–3 colonies in BHI with 50 µg/mL kanamycin and allowed to grow until an OD600 between 0.1–0.4. Meanwhile, 384-well plates were filled with 25 µL BHI broth with 100 µg mL^−1 kanamycin (columns 1–22) or 200 µg mL^−1 Penicillin G (positive control, columns 23–24). Five hundred nanoliters of small molecules were transferred into the media (columns 3–22) using the Biomex FX^P automated work station with a 384-well pin tool. Precultures were diluted to an OD600 of 0.02 in 1 L BHI broth without antibiotics. Twenty five microliters of cell culture was immediately aliquoted into plates containing 25 µL media, antibiotics, and small-molecules using a Multidrop (Thermo LabSystems), resulting in 50 µg mL^−1 kanamycin and 10 µM small molecules with 1% DMSO or 100 µg mL^−1 Penicillin G. Plates were immediately lidded and placed into a humidified Cytomat 6001 incubator at 37 °C and allowed to grow for 15.5 hours. Following incubation, plates were removed from the Cytomat using a Thermo Spinnaker robotic arm on a rail, de-lidded, and placed into an EnVision high-speed plate reader for optical density measurement at 620 nm.
Raw data obtained from the screen was formatted in-house to upload to the Collaborative Drug Discovery Vault (www.collaborativedrug.com). Individual optical density readings were converted to a percent growth value ([ODsample-ODPositive control]/[ODNegative Control Average- ODPositive control]) and percent growth inhibition (1-percent growth). The Z-factors for the individual molecules were determined. Molecules with a Z-factor less than or equal to -2.75 were considered preliminary hits to advance forward a generous collection of preliminary hit molecules. Five microliters of each of the 1904 preliminary hit molecules were re-arrayed into new 384-well polypropylene plates. Each of the 1904 preliminary hits were assayed against both the MG-1 and ΔgspAΔsrtA strains in duplicate, on two separate days. Percent difference of growth was calculated according to the equation 100–100[(ODMG-1, Sample-ODMG-1, Positive Control)/ODΔgspAΔsrtA, Sample-ODΔgspAΔsrtA, Positive Control)]/[(ODMG-1, Average-ODMG-1, Positive Control)/ODΔgspAΔsrtA, Average-ODΔgspAΔsrtA, Positive Control)]. […] Molecules were ranked according to their relative growth.

A. oris ΔgspAΔsrtA = experiment: Minimum inhibitory concentration, ΔgspA/ΔsrtA strain; assay type: cell-based, Actinomyces oris; conditions: BHI, 96-well plates, 18 hours
Protocol: (§3) Two validation assays were performed for each hit molecule that measured: (i) the minimum inhibitory concentration (MIC) required to prevent growth of the MG-1 and ΔsrtA/ΔgspA strains, and (ii) their in vitro inhibitory activity against the enzymatic activity of the A. oris and S. aureus sortase enzymes. Initially, the selective growth effect originally observed in the HTS that used 384-well plates was more rigorously defined by determining each molecule’s MIC value for the MG-1 and ΔsrtA/ΔgspA strains. Cells were cultured in 100 µL media containing 2-fold dilutions of each small molecule between 320 µM and 0.039 µM (approximately 134 µg mL^−1 to […]).
(§4) Minimum inhibitory concentration (MIC) values were determined for molecules 1–6 according to the Clinical Laboratory Standard Institutes’ (CLSI) Methods for Dilution Antimicrobial Susceptibility Tests for Bacteria that Grow Aerobically, Approved standards-ninth edition; M07-A9 Vol. 32 No. 2 with the following alterations. Overnight cultures of MG-1 and ΔgspAΔsrtA were diluted to OD600 values of 0.01 before being added to BHI containing the appropriate molecule in 96-well plates. Mueller-Hinton broth was not usable because A. oris is a fastidious bacterium. Plates were sealed with Breatheasy seals and incubated for 18 hours, as A. oris has a doubling time of 2 hours. Plate seals were removed and OD600 values measured. Each plate was run with a positive control (cells, media, and Penicillin G), negative control (media and cells only), and contamination control (media only).

AoSrtA = AoSrtA (Actinomyces oris, UniProt A0A0X8K1J2); experiment: FRET-based in vitro sortase activity assay, AoSrtA; assay type: biochemical; conditions: for Inhibition of AoSrtA in vitro: FRET assay
Protocol: as §1, §2

A. oris MG-1 = experiment: Minimum inhibitory concentration, MG-1 strain; assay type: cell-based; conditions: Actinomyces oris, MG1; BHI, 96-well plates, 18 hours
Protocol: as §3, §4

[2] = system: A. oris ΔgspA and ΔlcpA strains; experiment: Pilus display by transmission electron microscopy; assay type: cell-based, Actinomyces oris; conditions: 10 μM; for Pilus assembly at the cell pole (TEM): ΔgspA or ΔlcpA strain, versus untreated control; for Pili display (TEM): ΔgspA strain, Fig. 5A–D
Protocol: (§5) To examine if these molecules inhibit cell wall anchoring of surface proteins (e.g. GspA), we similarly treated cells devoid of lcpA, i.e. ΔlcpA, another suppressor of srtA[46]. […] To corroborate these observations, we subjected A. oris cells of ΔgspA and Δlcp strains to 10 μM of each molecule (3, 4 and 6) and studied pilus display with transmission electron microscopy (TEM), whereby A. oris cells were immobilized on nickel grids and stained with 1% uranyl acetate prior to viewing by an electron microscope.
To observe cell morphology by negative staining, A. oris cells harvested after inhibitor treatment were washed once with PBS and suspended in 0.1 M NaCl. A drop of 7 µL of bacterial suspension was placed onto carbon-coated nickel grids and stained with 1% uranyl acetate. Samples were examined using a JEOL JEM1200.

A. oris ΔgspA = experiment: Cell fractionation and immunoblot with α-FimA (type 2 pilus); assay type: cell-based, Actinomyces oris; conditions: 10 µM, 3 hours, ΔgspA strain, versus control
Protocol: To understand the physiological effects that these molecules have on the display of pili and surface proteins on the surface of A. oris, we grew cells with 10 µM of each hit molecule and assessed sortase activity by western blot and electron microscopy as previously reported. To avoid a confounding problem that inhibiting ^AoSrtA causes cell arrest, we performed the experiments in a mutant devoid of gspA; the aforementioned genetic suppressor of sortase lethality.
(§6) Cell fractionation and Western blotting were followed according to a published protocol. Briefly, the cultures of A. oris strains grown in BHI at 37 °C until OD600 of 0.25 were aliquoted, and bacterial aliquots were treated with 10 µM of individual sortase inhibitors for 3 hours. Bacterial cultures were then normalized to equal OD600, and cells were fractionated into culture medium (S), cell wall (W), and protoplast fractions. Isolated fractions were subjected to protein precipitation by 7.5% trichloroacetic acid, followed by washing with cold acetone, except for the protoplast fractions. Protein samples were dissolved in hot sodium dodecyl sulfate (SDS)-containing sample buffer, separated by 3–12% Tris-glycine gradient gels, and subjected to immunoblotting with specific antisera (α-FimA, 1:10,000 dilution; α-GspA, α-MdbA, α-SrtC2 and α-SrtA, 1:4000 dilution), followed by chemo-luminescence detection.

A. oris ΔlcpA = experiment: Cell fractionation and immunoblot with α-GspA (cell wall anchoring of GspA); assay type: cell-based, Actinomyces oris; conditions: 10 µM, ΔlcpA strain; for GspA polymers (immunoblot α-GspA): 3 hours; for GspA display / cell wall associated GspA: Fig. 4B
Protocol: as §5, §6

[3] = IC50 (A. oris), AoSrtA 10 µM, Abz-LAQTG-Dap(Dnp)-NH2, 1 hour preincubation
[4] = IC50 values, range over compounds, range for both AoSrtA and SaSrtA, in µM

SaSrtA, sequence (Q2FV99 whole entry): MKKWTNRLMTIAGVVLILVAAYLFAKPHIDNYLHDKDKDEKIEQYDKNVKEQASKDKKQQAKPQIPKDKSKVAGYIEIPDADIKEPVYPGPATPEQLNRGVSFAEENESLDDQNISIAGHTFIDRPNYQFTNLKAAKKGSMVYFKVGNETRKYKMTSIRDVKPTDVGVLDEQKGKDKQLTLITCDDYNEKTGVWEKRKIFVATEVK
AoSrtA, sequence (A0A0X8K1J2 entry or part of it): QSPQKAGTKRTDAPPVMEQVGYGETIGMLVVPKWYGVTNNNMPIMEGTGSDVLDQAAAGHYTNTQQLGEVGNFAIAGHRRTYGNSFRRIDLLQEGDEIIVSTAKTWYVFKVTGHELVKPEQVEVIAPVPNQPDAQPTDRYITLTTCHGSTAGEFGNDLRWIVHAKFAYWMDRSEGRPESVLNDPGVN

| Structure (SMILES) | IC50 (SaSrtA) [µM] | Differential Growth [1] [%] | MIC (ΔgspA/ΔsrtA) (A. oris ΔgspAΔsrtA) [µg/mL] | Inhibition of AoSrtA in vitro (AoSrtA) | IC50 (AoSrtA; [3]) [µM] | MIC (A. oris MG-1) [µg/mL] | Pilus assembly at the cell pole (TEM) [2] | Pili display (TEM) [2] | FimA polymers / type 2 pilus production (immunoblot α-FimA) (A. oris ΔgspA) | GspA polymers (immunoblot α-GspA) (A. oris ΔlcpA) | GspA display / cell wall associated GspA (A. oris ΔlcpA) | IC50 (AoSrtA; [4]) [µM] |
| --- | --- | --- | --- | --- | --- | --- | --- | --- | --- | --- | --- | --- |
| Cc1ccc(S(=O)(=O)Cc2nc3cc(-c4ccccc4)sc3c(=O)[nH]2)cc1 [Compound 1] | 202 | 65.7 ± 0.5 | 4.0 (≈ 10.1 µM) | failed to inhibit | > 479 | 2 (≈ 5.04 µM) | – | – | – | – | – | – |
| Cc1cc(NS(=O)(=O)c2ccc(C(C)(C)C)cc2)n(C2CCS(=O)(=O)C2)n1 (stereo not drawn) [Compound 2] | > 486 | 96.2 ± 0.3 | 2.1 (≈ 5.1 µM) | failed to inhibit | > 486 | 0.5 (≈ 1.21 µM) | – | – | – | – | – | – |
| CCc1ccc2nc(N(Cc3cccnc3)C(=O)c3ccc([N+](=O)[O-])o3)sc2c1 [Compound 3] | 220 | 17.5 ± 3.5 | >130 | – | 73.5 | 8.2 (≈ 20.1 µM) | significant reduction of pilus assembly at the cell pole | completely absent | decreased FimA polymers | no GspA polymers were observed | decreased amounts of cell wall associated GspA | 73 to 170 |
| COc1ccc2nc(N(Cc3ccccc3)C(=O)c3ccc([N+](=O)[O-])o3)sc2c1 [Compound 4] | 488 | 38.5 ± 0.5 | >130 | – | 171 | 16.4 (≈ 40.1 µM) | significant reduction of pilus assembly at the cell pole | diminished | decreased FimA polymers | no GspA polymers were observed | decreased amounts of cell wall associated GspA | 73 to 170 |
| O=C(c1cc(-c2ccc(F)cc2)n[nH]1)N1CC(c2nc(-c3ccccc3)no2)C1 [Compound 5] | 282 | 96.2 ± 0.3 | 2.0 (≈ 5.14 µM) | failed to inhibit | > 488 | 1 (≈ 2.57 µM) | – | – | – | – | – | – |
| Cc1nc(COc2ccc(F)cc2)sc1CC(=O)Nc1nc2c(s1)CC(C)CC2 (stereo not drawn) [Compound 6] | 125 | 71.8 ± 16.5 | 8.4 (≈ 19.5 µM) | – | 139 | 2.1 (≈ 4.87 µM) | significant reduction of pilus assembly at the cell pole | only modestly effects pili display | little effect on type 2 pilus production | no GspA polymers were observed | significantly diminishes GspA display | 73 to 170 |
